Laboratory results from ChEMBL document CHEMBL1781990, “Synthesis and pharmacological activity of O-aminoalkyl derivatives of 7-hydroxycoumarin” (2011).
In brackets after ≈: the same amount, converted by molar mass. Activity calls are given as the source filed them. The calls are words filed in the database; no cut-off is given here.

Experiments:
Bacillus cereus [1] = assay: Antibacterial against Bacillus cereus ATCC 11778 at 20 mg/mL after 24 hrs by NCCLS M7-A6 method; type: functional, organism-based
Escherichia coli [2] = assay: Antibacterial against Escherichia coli ATCC 10536 at 20 mg/mL after 24 hrs by NCCLS M7-A6 method; type: functional, organism-based
Micrococcus luteus [3] = assay: Antibacterial against Micrococcus luteus ATCC 10240 at 20 mg/mL after 24 hrs by NCCLS M7-A6 method; type: functional, organism-based
Bacillus subtilis [4] = assay: Antibacterial against Bacillus subtilis ATCC 6633 at 20 mg/mL after 24 hrs by NCCLS M7-A6 method; type: functional, organism-based
Escherichia coli [5] = assay: Antibacterial against Escherichia coli ATCC 8739 at 20 mg/mL after 24 hrs by NCCLS M7-A6 method; type: functional, organism-based
Staphylococcus aureus [6] = assay: Antibacterial against Staphylococcus aureus ATCC 6538 at 20 mg/mL after 24 hrs by NCCLS M7-A6 method; type: functional, organism-based
Micrococcus luteus [7] = assay: Antibacterial against Micrococcus luteus ATCC 9341 at 20 mg/mL after 24 hrs by NCCLS M7-A6 method; type: functional, organism-based
Staphylococcus aureus [8] = assay: Antibacterial against Staphylococcus aureus ATCC 6538P at 20 mg/mL after 24 hrs by NCCLS M7-A6 method; type: functional, organism-based
Bacillus cereus [9] = assay: Antibacterial against Bacillus cereus ATCC 11778 after 24 hrs by NCCLS M7-A6 method; type: functional
Escherichia coli [10] = assay: Antibacterial against Escherichia coli ATCC 10536 after 24 hrs by NCCLS M7-A6 method; type: functional; settings: ATCC 10536, 24 h
Bacillus subtilis [11] = assay: Antibacterial against Bacillus subtilis ATCC 6633 after 24 hrs by NCCLS M7-A6 method; type: functional
Micrococcus luteus [12] = assay: Antibacterial against Micrococcus luteus ATCC 9341 after 24 hrs by NCCLS M7-A6 method; type: functional
Staphylococcus aureus [13] = assay: Antibacterial against Staphylococcus aureus ATCC 6538P after 24 hrs by NCCLS M7-A6 method; type: functional
Staphylococcus aureus [14] = assay: Antibacterial against Staphylococcus aureus ATCC 6538 after 24 hrs by NCCLS M7-A6 method; type: functional; settings: ATCC 6538, 24 h
HL-60 = assay: Cytotoxicity against human HL60 cells assessed as cell growth inhibition at 10^-5 M; type: functional, cell-based
786-0 = assay: Cytotoxicity against human 786-0 cells assessed as cell growth inhibition at 10^-5 M; type: functional, cell-based
CCRF-CEM = assay: Cytotoxicity against human CCRF-CEM cells assessed as cell growth inhibition at 10^-5 M; type: functional, cell-based
HOP-92 = assay: Cytotoxicity against human HOP92 cells assessed as cell growth inhibition at 10^-5 M; type: functional, cell-based
HCC 2998 = assay: Cytotoxicity against human HCC2998 cells assessed as cell growth inhibition at 10^-5 M; type: functional, cell-based
Cancer cell lines [15] = assay: Cytotoxicity against human renal cancer cells assessed as cell growth inhibition at 10^-5 M; type: functional, cell-based
Cancer cell lines [16] = assay: Cytotoxicity against human breast cancer cells assessed as cell growth inhibition at 10^-5 M; type: functional, cell-based
Cancer cell lines [17] = assay: Cytotoxicity against human CNS cancer cells assessed as cell growth inhibition at 10^-5 M; type: functional, cell-based
Leukemia cell = assay: Cytotoxicity against human leukemia cells assessed as cell growth inhibition at 10^-5 M; type: functional, cell-based
Cancer cell lines [18] = assay: Cytotoxicity against human colon cancer cells assessed as cell growth inhibition at 10^-5 M; type: functional, cell-based
Cancer cell lines [19] = assay: Cytotoxicity against human ovarian cancer cells assessed as cell growth inhibition at 10^-5 M; type: functional, cell-based
Cancer cell lines [20] = assay: Cytotoxicity against human prostate cancer cells assessed as cell growth inhibition at 10^-5 M; type: functional, cell-based
Cancer cell lines [21] = assay: Cytotoxicity against human lung cancer cells assessed as cell growth inhibition at 10^-5 M; type: functional, cell-based
Melanoma cell = assay: Cytotoxicity against human melanoma cells assessed as cell growth inhibition at 10^-5 M; type: functional, cell-based
[22] = Bacillus cereus, ATCC 11778, 24 h, read-out: MIC
[23] = Bacillus subtilis, ATCC 6633, 24 h, read-out: MIC
[24] = Micrococcus luteus, ATCC 9341, 24 h, read-out: MIC

Compound	Activity (Escherichia coli [2])	Activity (Escherichia coli [5])	Activity (Staphylococcus aureus [6])	Activity (Staphylococcus aureus [8])	MIC (Bacillus cereus [9]; [22]) [mM]	MIC (Escherichia coli [10]) [mM]	MIC (Bacillus subtilis [11]; [23]) [mM]	MIC (Micrococcus luteus [12]; [24]) [mM]	MIC (Staphylococcus aureus [13]) [mM]	MIC (Staphylococcus aureus [14]) [mM]	further results
O=c1ccc2ccc(O)cc2o1	inactive	inactive	inactive	inactive							Activity (Bacillus cereus [1]): inactive; Activity (Micrococcus luteus [3]): inactive; Activity (Bacillus subtilis [4]): inactive; Activity (Micrococcus luteus [7]): inactive
CC(=O)c1c(OCCN(C)Cc2ccccc2)ccc2c(C)cc(=O)oc12		inactive			2.4 (≈ 877 µg/mL)	35.7 (≈ 13000 µg/mL)	2.4 (≈ 877 µg/mL)	6 (≈ 2190 µg/mL)	23.8 (≈ 8700 µg/mL)	35.7 (≈ 13000 µg/mL)	
CCN(CC)CCOc1ccc2c(C)cc(=O)oc2c1C(C)=O					3.9 (≈ 1240 µg/mL)		3.9 (≈ 1240 µg/mL)	2 (≈ 635 µg/mL)	3.9 (≈ 1240 µg/mL)	3.9 (≈ 1240 µg/mL)	
CCN(CC)CCOc1cc2oc(=O)cc(C)c2cc1C(C)=O [listing 1 of 2 here]											MIC (Bacillus cereus [9]): 63 mM (≈ 20000 µg/mL); MIC (Bacillus subtilis [11]): 31.5 mM (≈ 10000 µg/mL); MIC (Micrococcus luteus [12]): 31.5 mM (≈ 10000 µg/mL)
CC(=O)c1c(OCCN2CCCCC2C)ccc2c(C)cc(=O)oc12 (stereo not drawn)					24.6 (≈ 8450 µg/mL)	49.2 (≈ 16900 µg/mL)	24.6 (≈ 8450 µg/mL)	12.3 (≈ 4220 µg/mL)	24.6 (≈ 8450 µg/mL)	24.6 (≈ 8450 µg/mL)	growth inhibition (GI) (HL-60): Active; growth inhibition (GI) (786-0): Active
CCN(CC)CCOc1cc2oc(=O)cc(C)c2cc1C(C)=O.Cl						7.1			7.1	7.1	MIC (Bacillus cereus [9]): 0.4 mM; MIC (Bacillus subtilis [11]): 0.4 mM; MIC (Micrococcus luteus [12]): 1.8 mM
CC(C)N(CCOc1ccc2ccc(=O)oc2c1)C(C)C			inactive		30.7 (≈ 8880 µg/mL)	46 (≈ 13300 µg/mL)	46 (≈ 13300 µg/mL)	46 (≈ 13300 µg/mL)	61.4 (≈ 17800 µg/mL)		
CC(=O)c1c(O)ccc2c(C)cc(=O)oc12	inactive	inactive		inactive	22.9 (≈ 5000 µg/mL)		45.8 (≈ 9990 µg/mL)	68.7 (≈ 15000 µg/mL)		68.7 (≈ 15000 µg/mL)	
Cc1cc(=O)oc2cc(O)ccc12 [HYMECROMONE]	inactive	inactive	inactive	inactive	85.1 (≈ 15000 µg/mL)						Activity (Micrococcus luteus [3]): inactive; Activity (Bacillus subtilis [4]): inactive; Activity (Micrococcus luteus [7]): inactive
CCN(CC)CCOc1cc2oc(=O)cc(C)c2cc1C(C)=O [listing 2 of 2 here]	inactive	inactive	inactive	inactive							
CC(=O)c1cc2c(C)cc(=O)oc2cc1O	inactive	inactive		inactive	4.6 (≈ 1000 µg/mL)		22.9 (≈ 5000 µg/mL)	45.8 (≈ 9990 µg/mL)		45.8 (≈ 9990 µg/mL)	
CC(=O)c1cc2c(C)cc(=O)oc2cc1OCCN1CCCCC1C (stereo not drawn)		inactive			1.6 (≈ 549 µg/mL)	26.3 (≈ 9030 µg/mL)	1.6 (≈ 549 µg/mL)	6.6 (≈ 2270 µg/mL)	26.3 (≈ 9030 µg/mL)	26.3 (≈ 9030 µg/mL)	
CC(=O)c1cc2c(C)cc(=O)oc2cc1OCCN1CCOCC1					30.2 (≈ 10000 µg/mL)	30.2 (≈ 10000 µg/mL)	30.2 (≈ 10000 µg/mL)	30.2 (≈ 10000 µg/mL)	30.2 (≈ 10000 µg/mL)	30.2 (≈ 10000 µg/mL)	growth inhibition (GI) (CCRF-CEM): Active; growth inhibition (GI) (HOP-92): Active; growth inhibition (GI) (HCC 2998): Active
Cc1cc(=O)oc2cc(OCCN(C(C)C)C(C)C)ccc12					2.9 (≈ 880 µg/mL)	14.7 (≈ 4460 µg/mL)	2.9 (≈ 880 µg/mL)	7.4 (≈ 2250 µg/mL)	44.1 (≈ 13400 µg/mL)	44.1 (≈ 13400 µg/mL)	growth inhibition (GI) (Cancer cell lines [15]): inactive; growth inhibition (GI) (786-0): inactive; growth inhibition (GI) (Cancer cell lines [16]): inactive; growth inhibition (GI) (Cancer cell lines [17]): inactive; growth inhibition (GI) (Leukemia cell): inactive; growth inhibition (GI) (Cancer cell lines [18]): inactive; growth inhibition (GI) (Cancer cell lines [19]): inactive; growth inhibition (GI) (Cancer cell lines [20]): inactive; growth inhibition (GI) (Cancer cell lines [21]): inactive; growth inhibition (GI) (Melanoma cell): inactive
CC(=O)c1cc2c(C)cc(=O)oc2cc1OCCN(C(C)C)C(C)C	inactive	inactive	inactive	inactive	12.5 (≈ 4320 µg/mL)		12.5 (≈ 4320 µg/mL)	37.5 (≈ 13000 µg/mL)			
